The values that follow come from US12077503B2, “Substituted cyclic amides and their use as herbicides” (FMC CORPORATION, priority 2015, dated 2024).

Structures are written as SMILES. Where two headings read alike, the source gives them in different places.

Holding throughout (type): in vivo
One assay concerns Kochia (Kochia scoparia). Briefly: Test A preemergence. Conditions: Bassia scoparia, pre-emergence, 240 h, read-out: Plant response rating, Kochia; for pest or weed control at 500 g/ha: 500 g ai/ha; for pest or weed control at 125 g/ha: 125 g ai/ha. In short, it runs like this:
(§1)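 Seeds sprayed preemergence with a directed soil spray, or plants at 2 to 10 cm height and one- to two-leaf stage sprayed postemergence, with test chemicals in a non-phytotoxic solvent mixture containing surfactant, in loam soil–sand blend. Injury rated visually against untreated controls after about 10 d in greenhouse, 0 (no effect) to 100 (complete control).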

Assay [1] deals with barnyardgrass (Echinochloa crus-galli). Briefly: Test A preemergence. As to conditions: Echinochloa crus-galli, pre-emergence, 240 h, read-out: Plant response rating, Barnyardgrass; for pest or weed control at 500 g/ha: 500 g ai/ha; for pest or weed control at 125 g/ha: 125 g ai/ha. In short, it runs like this:
as §1

Assay [2] concerns giant foxtail (Setaria faberii). Description: Test A preemergence. Conditions: Setaria faberi, pre-emergence, 240 h, read-out: Plant response rating, Foxtail, Giant; for pest or weed control at 500 g/ha: 500 g ai/ha; for pest or weed control at 125 g/ha: 125 g ai/ha. The method, boiled down:
as §1

The test system of assay [3] is pigweed (Amaranthus retroflexus). Description: Test A preemergence. Conditions: Amaranthus retroflexus, pre-emergence, 240 h, read-out: Plant response rating, Pigweed; for pest or weed control at 500 g/ha: 500 g ai/ha; for pest or weed control at 125 g/ha: 125 g ai/ha.
For assay [4], the system named is ragweed (common ragweed, Ambrosia elatior). Description: Test A preemergence. As to conditions: Ambrosia artemisiifolia, pre-emergence, 240 h, read-out: Plant response rating, Ragweed; for pest or weed control at 500 g/ha: 500 g ai/ha; for pest or weed control at 125 g/ha: 125 g ai/ha. In short, it runs like this:
as §1

The test system of assay [5] is ryegrass, Italian (Italian ryegrass, Lolium multiflorum). Description: Test A preemergence. As to conditions: Lolium multiflorum, pre-emergence, 240 h, read-out: Plant response rating, Ryegrass, Italian; for pest or weed control at 500 g/ha: 500 g ai/ha; for pest or weed control at 125 g/ha: 125 g ai/ha. In short, it runs like this:
as §1

Assay [6] relates to barnyardgrass (Echinochloa crus-galli). Description: Test A postemergence. As to conditions: Echinochloa crus-galli, post-emergence, 240 h; for pest or weed control at 125 g/ha: 125 g ai/ha. In short, it runs like this:
as §1

Assay [7] relates to giant foxtail (Setaria faberii). Briefly: Test A postemergence. Conditions: Setaria faberi, post-emergence, 240 h; for pest or weed control at 125 g/ha: 125 g ai/ha. In short, it runs like this: as §1
The subject of assay [8] is pigweed (Amaranthus retroflexus). Description: Test A postemergence. Conditions: Amaranthus retroflexus, post-emergence, 240 h; for pest or weed control at 125 g/ha: 125 g ai/ha. In short, it runs like this:
as §1

In assay [9] the test system is ryegrass, Italian (Italian ryegrass, Lolium multiflorum). Description: Test A postemergence. Conditions: Lolium multiflorum, post-emergence, 240 h; for pest or weed control at 125 g/ha: 125 g ai/ha. The method, boiled down:
as §1

In assay [10] the test system is barnyardgrass (Echinochloa crus-galli). Description: Test B flooded paddy test. Conditions: Echinochloa crus-galli, 250 g ai/ha, Flood, read-out: Barnyardgrass plant response rating. The method, boiled down: (§2)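 2-leaf plants; pots flooded 3 cm over soil; cpd added to paddy water; depth held; greenhouse 13–15 d; visual rating vs controls, 0 = no effect, 100 = complete control.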

Assay [11] relates to ducksalad (Heteranthera limosa). Description: Test B flooded paddy test. Conditions: Heteranthera limosa, 250 g ai/ha, Flood, read-out: Ducksalad plant response rating. In short, it runs like this:
as §2

Another assay relates to rice (Oryra sativa). Briefly: Test B flooded paddy test. As to conditions: Oryza sativa, 250 g ai/ha, Flood, read-out: Rice plant response rating. The method, boiled down:
as §2

For assay [12], the system named is sedge, umbrella (small-flower umbrella sedge, Cyperus difformis). Description: Test B flooded paddy test. As to conditions: Cyperus difformis, Flood, 250 g ai/ha. The method, boiled down:
as §2

[13] abbreviates: preemergence, 0 to 100 scale (0 no effect, 100 complete control).
Setting [14] is: Preemergence, 0 to 100 scale (0 no effect, 100 complete control).
Where [15] appears, read: 0 to 100 scale where 0 is no effect and 100 is complete control.
The mark [16] stands for this setting: preemergence, visual rating after approx. 10 d, 0 to 100 scale where 0 is no effect and 100 is complete control.
Where [17] appears, read: preemergence, 0 to 100 scale, 0 = no effect, 100 = complete control.
Where [18] appears, read: scale of 0 to 100 where 0 is no effect and 100 is complete control.

Consider `Cc1c(F)ccc([C@H]2CNC(=O)[C@@H]2C(=O)Nc2cccc(F)c2F)c1F` [Compound 1327], for which the pest or weed control at 500 g/ha in the assay on Kochia (Kochia scoparia) (setting [13]) was determined as 90%; in assay [1] (setting [13]) it was 90%; in [2] (setting [13]), 90%; in [3] (setting [13]), 30%; in [4] (setting [13]), 0%; in assay [5] (setting [13]) it was 20%. The pest or weed control at 500 g/ha in assay [6] (Postemergence, 500 g ai/ha, visual injury, 0 to 100 scale (0 no effect, 100 complete control), approx. 10 d, read-out: Plant response rating, Barnyardgrass) amounted to 90%; in [7] (Postemergence, 500 g ai/ha, visual injury, 0 to 100 scale (0 no effect, 100 complete control), approx. 10 d, read-out: Plant response rating, Foxtail, Giant), 70%; in assay [8] (Postemergence, 500 g ai/ha, visual injury, 0 to 100 scale (0 no effect, 100 complete control), approx. 10 d, read-out: Plant response rating, Pigweed), 0%; in [9] (Postemergence, 500 g ai/ha, visual injury, 0 to 100 scale (0 no effect, 100 complete control), approx. 10 d, read-out: Plant response rating, Ryegrass, Italian) it was 40%. In addition, the pest or weed control at 125 g/ha worked out at 100% with Kochia (Kochia scoparia) (setting [14]); 90% in [1] (setting [14]); 70% in assay [2] (setting [14]); 0% in assay [3] (setting [14]); 0% in assay [4] (setting [14]); 20% in assay [5] (setting [14]). The pest or weed control at 125 g/ha was 90% in assay [6] (Postemergence, visual rating about 10 d after treatment, read-out: Barnyardgrass plant response rating (0 to 100 scale, 0 no effect, 100 complete control)); 20% in assay [7] (Postemergence, visual rating about 10 d after treatment, read-out: Foxtail, Giant plant response rating (0 to 100 scale)); 0% in assay [8] (Postemergence, visual rating about 10 d after treatment, read-out: Pigweed plant response rating (0 to 100 scale)); 0% in [9] (Postemergence, visual rating about 10 d after treatment, read-out: Ryegrass, Italian plant response rating (0 to 100 scale)). Further, the pest or weed control at 250 g/ha in [10] (setting [15]) is 30%; in [11] (setting [15]), 100%; in the assay on rice (Oryra sativa) (setting [15]) it was 0%; in assay [12] (360 h, visually evaluated after 13 to 15 d, read-out: Plant response rating, Sedge, Umbrella (0 to 100 scale where 0 is no effect and 100 is complete control)), 0%.

Turning to `CSc1ccccc1NC(=O)[C@H]1C(=O)N(C)C[C@@H]1c1ccc(C)c(C)c1` [Compound 733], the pest or weed control at 125 g/ha stood at 20% in the assay with Kochia (Kochia scoparia) (setting [16]); 90% in assay [1] (setting [16]); 90% in assay [2] (setting [16]); 20% in [3] (setting [16]); 70% in assay [4] (setting [16]); 40% in [5] (setting [16]). Moreover, the pest or weed control at 125 g/ha in [6] (postemergence, visual injury after approximately 10 d, 0 to 100 scale (0 no effect, 100 complete control), read-out: Plant response rating, Barnyardgrass) stood at 90%; in assay [7] (postemergence, visual injury after approximately 10 d, 0 to 100 scale (0 no effect, 100 complete control), read-out: Plant response rating, Foxtail, Giant), 80%; in [8] (postemergence, visual injury after approximately 10 d, 0 to 100 scale (0 no effect, 100 complete control), read-out: Plant response rating, Pigweed) it was 0%; in assay [9] (postemergence, visual injury after approximately 10 d, 0 to 100 scale (0 no effect, 100 complete control), read-out: Plant response rating, Ryegrass, Italian), 20%. For the same compound, the pest or weed control at 500 g/ha with Kochia (Kochia scoparia) (setting [17]) came to 80%; in assay [1] (setting [17]), 100%; in assay [2] (setting [17]) it was 90%; in [3] (setting [17]), 60%; in assay [4] (setting [17]), 80%; in assay [5] (setting [17]) it was 60%. Further, the pest or weed control at 250 g/ha in assay [10] (setting [18]) turned out to be 20%; in [11] (setting [18]), 60%; in the assay on rice (Oryra sativa) (setting [18]), 0%; in [12] (scale of 0 to 100 where 0 is no effect and 100 is complete control, read-out: Sedge, Umbrella plant response rating) it was 0%.
